Laboratory results taken from paper PMC3685188 (Chemical Research in Toxicology, 2013).

Experiments:
rNNR_BungSens = rNNR_BungSens (Rattus norvegicus, UniProt Q05941); assay: LGIC_rNNR_BungSens binding; settings: LCT ∼[…] for non-CYPs; value = assay target as listed
hNTS = hNTS (Homo sapiens, UniProt P30989); assay: GPCR_hNTS binding; settings: LCT ∼[…] for non-CYPs; value = assay target as listed
bGABARa5 = assay: LGIC_bGABARa5 binding; set-up: species or system bovine; settings: LCT ∼[…] for non-CYPs; value = assay target as listed
hETA = hETA (Homo sapiens, UniProt P25101); assay: GPCR_hETA binding; settings: LCT ∼[…] for non-CYPs; value = assay target as listed
gDAT = assay: TR_gDAT dopamine transporter binding; set-up: species or system guinea pig; settings: LCT ∼[…] for non-CYPs; value = assay target as listed
rSERT = rSERT (Rattus norvegicus, UniProt P31652); assay: TR_rSERT serotonin transporter binding
hCYP4F12 = hCYP4F12 (Homo sapiens, UniProt Q9HCS2); assay: ADME_hCYP4F12_Activator; assay type: in vitro ADME; settings: activator assay; LCT ∼0.009 μM for CYPs; value = assay target as listed
gSIGMA_NonSelective = assay type: binding, guinea pig; settings: LCT ∼[…] for non-CYPs; value = assay target as listed
mCCKAPeripheral = mCCKAPeripheral (Mus musculus, UniProt O08786); assay type: binding
hAdrb2 = hAdrb2 (Homo sapiens, UniProt P07550); assay: GPCR_hAdrb2 binding; settings: LCT ∼[…] for non-CYPs; value = assay target as listed
hDUSP3 = hDUSP3 (Homo sapiens, UniProt P51452); assay: ENZ_hDUSP3 phosphatase inhibition; assay type: biochemical; settings: LCT ∼[…] for non-CYPs; value = assay target as listed
kinases and phosphatases = assay: kinase and phosphatase assays taken together; assay type: biochemical
r5HT_NonSelective = assay: GPCR_r5HT_NonSelective binding; set-up: species or system rat; settings: LCT ∼[…] for non-CYPs; value = assay target as listed
hDRD4.4 = hDRD4.4 (Homo sapiens, UniProt P21917); assay type: binding; settings: LCT ∼[…] for non-CYPs; value = assay target as listed
p5HT2C = assay type: binding, boar; settings: LCT ∼[…] for non-CYPs; value = assay target as listed
h5HT7 = h5HT7 (Homo sapiens, UniProt P34969); assay: GPCR_h5HT7 binding; settings: LCT ∼[…] for non-CYPs; value = assay target as listed
hDRD1 = hDRD1 (Homo sapiens, UniProt P21728); assay type: binding; settings: LCT ∼[…] for non-CYPs; value = assay target as listed
h5HT2A = h5HT2A (Homo sapiens, UniProt P28223); assay type: binding; settings: LCT ∼[…] for non-CYPs; value = assay target as listed
h5HT2A, sequence (P28223 whole entry): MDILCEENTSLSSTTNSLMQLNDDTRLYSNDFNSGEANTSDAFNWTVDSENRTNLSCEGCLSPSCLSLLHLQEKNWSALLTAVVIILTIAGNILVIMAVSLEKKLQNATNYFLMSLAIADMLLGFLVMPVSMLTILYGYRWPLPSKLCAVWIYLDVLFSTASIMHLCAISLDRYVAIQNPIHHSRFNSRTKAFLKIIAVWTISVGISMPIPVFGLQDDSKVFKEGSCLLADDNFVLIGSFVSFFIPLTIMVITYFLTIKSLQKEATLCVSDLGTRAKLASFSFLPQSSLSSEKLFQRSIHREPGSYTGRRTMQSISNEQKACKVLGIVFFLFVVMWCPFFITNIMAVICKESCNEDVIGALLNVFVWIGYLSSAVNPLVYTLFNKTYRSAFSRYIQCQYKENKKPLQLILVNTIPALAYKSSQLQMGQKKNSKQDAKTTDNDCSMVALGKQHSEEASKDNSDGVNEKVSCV

hDUSP3, sequence (P51452 whole entry): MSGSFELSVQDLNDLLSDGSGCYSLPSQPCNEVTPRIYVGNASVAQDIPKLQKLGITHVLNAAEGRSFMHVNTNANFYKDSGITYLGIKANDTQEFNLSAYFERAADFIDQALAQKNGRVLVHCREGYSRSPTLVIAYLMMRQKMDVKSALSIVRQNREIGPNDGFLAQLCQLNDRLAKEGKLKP
hETA, sequence (P25101 21-427): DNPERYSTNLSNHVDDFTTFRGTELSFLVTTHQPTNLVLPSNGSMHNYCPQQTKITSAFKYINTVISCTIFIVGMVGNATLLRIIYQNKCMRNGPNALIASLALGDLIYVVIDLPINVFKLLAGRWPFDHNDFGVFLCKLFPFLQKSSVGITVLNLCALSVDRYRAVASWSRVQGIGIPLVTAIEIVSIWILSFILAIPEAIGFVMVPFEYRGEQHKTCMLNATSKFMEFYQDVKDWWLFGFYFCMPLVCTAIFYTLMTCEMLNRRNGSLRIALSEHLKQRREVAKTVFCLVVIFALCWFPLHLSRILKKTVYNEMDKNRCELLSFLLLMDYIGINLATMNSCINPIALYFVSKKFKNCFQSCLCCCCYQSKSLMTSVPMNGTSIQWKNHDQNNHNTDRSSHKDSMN
hAdrb2, sequence (P07550 whole entry): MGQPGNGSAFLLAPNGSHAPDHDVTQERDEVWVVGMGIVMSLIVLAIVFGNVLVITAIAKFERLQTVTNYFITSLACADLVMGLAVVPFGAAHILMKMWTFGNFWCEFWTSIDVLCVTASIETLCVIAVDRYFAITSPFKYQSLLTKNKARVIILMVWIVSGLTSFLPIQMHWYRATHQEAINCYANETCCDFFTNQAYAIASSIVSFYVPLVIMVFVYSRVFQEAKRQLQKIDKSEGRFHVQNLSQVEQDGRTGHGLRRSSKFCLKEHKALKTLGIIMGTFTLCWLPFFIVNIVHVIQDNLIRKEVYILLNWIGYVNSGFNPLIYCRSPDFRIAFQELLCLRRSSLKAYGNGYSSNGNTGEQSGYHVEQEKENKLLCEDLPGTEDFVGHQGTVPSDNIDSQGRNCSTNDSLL
hDRD4.4, sequence (P21917 whole entry): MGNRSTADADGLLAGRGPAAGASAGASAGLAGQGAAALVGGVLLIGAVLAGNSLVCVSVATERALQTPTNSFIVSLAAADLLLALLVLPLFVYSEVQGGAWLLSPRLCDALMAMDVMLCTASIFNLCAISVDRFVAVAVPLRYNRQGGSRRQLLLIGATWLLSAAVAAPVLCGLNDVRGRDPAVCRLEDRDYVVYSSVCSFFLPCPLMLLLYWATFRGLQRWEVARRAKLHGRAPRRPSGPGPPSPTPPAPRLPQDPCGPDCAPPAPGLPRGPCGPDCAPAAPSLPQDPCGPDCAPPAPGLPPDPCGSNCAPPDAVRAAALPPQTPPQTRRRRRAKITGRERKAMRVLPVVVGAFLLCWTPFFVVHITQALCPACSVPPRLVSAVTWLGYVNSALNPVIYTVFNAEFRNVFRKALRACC
rNNR_BungSens, sequence (Q05941 23-502): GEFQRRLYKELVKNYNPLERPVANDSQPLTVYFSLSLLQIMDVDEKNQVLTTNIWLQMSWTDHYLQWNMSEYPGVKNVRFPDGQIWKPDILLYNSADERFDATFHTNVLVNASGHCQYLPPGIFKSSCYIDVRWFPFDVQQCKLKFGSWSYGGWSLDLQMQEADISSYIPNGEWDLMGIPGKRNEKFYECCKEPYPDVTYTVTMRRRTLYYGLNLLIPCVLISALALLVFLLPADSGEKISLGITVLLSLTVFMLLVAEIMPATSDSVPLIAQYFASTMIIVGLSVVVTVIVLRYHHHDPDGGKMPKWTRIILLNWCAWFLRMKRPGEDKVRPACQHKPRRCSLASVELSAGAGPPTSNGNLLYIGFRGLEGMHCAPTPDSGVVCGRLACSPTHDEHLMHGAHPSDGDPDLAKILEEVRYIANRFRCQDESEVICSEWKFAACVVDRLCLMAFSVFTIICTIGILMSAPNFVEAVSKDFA
hDRD1, sequence (P21728 whole entry): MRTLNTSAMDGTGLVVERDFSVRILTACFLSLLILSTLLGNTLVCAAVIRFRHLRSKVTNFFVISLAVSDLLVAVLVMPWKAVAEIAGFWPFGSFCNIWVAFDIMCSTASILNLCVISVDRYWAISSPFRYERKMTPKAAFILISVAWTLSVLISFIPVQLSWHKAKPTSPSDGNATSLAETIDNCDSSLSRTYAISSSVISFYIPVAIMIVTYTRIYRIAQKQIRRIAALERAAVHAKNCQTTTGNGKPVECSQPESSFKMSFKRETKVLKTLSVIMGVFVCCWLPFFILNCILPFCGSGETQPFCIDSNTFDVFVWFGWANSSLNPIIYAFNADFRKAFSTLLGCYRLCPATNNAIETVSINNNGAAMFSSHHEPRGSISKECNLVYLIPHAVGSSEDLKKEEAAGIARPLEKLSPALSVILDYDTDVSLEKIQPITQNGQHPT
rSERT, sequence (P31652 whole entry): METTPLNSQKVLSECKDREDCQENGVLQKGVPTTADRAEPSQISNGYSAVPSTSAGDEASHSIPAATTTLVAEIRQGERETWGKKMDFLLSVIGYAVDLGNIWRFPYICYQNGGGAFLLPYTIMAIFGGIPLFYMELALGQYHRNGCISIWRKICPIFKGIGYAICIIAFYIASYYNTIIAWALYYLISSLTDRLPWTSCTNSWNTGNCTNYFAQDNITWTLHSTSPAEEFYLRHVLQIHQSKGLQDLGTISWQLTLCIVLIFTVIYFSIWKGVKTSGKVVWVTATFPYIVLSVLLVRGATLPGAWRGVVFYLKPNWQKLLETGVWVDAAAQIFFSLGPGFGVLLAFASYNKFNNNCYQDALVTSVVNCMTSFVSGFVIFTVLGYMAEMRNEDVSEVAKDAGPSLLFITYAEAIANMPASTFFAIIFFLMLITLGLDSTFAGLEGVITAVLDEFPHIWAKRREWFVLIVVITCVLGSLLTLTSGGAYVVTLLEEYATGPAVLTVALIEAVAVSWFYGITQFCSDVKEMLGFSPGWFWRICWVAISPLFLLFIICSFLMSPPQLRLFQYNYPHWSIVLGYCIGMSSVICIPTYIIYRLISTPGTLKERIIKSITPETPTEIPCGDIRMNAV
hNTS, sequence (P30989 whole entry): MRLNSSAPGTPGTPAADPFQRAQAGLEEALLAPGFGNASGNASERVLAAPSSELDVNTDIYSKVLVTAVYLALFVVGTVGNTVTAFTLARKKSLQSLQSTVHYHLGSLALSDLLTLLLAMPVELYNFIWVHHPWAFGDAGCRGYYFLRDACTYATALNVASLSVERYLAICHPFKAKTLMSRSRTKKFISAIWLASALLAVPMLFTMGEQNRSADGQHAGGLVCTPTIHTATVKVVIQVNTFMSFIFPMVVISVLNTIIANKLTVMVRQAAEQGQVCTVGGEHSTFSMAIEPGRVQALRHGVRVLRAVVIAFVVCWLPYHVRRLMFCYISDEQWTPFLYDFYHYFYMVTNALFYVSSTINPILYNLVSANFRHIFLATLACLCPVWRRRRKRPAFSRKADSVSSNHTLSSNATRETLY
h5HT7, sequence (P34969 whole entry): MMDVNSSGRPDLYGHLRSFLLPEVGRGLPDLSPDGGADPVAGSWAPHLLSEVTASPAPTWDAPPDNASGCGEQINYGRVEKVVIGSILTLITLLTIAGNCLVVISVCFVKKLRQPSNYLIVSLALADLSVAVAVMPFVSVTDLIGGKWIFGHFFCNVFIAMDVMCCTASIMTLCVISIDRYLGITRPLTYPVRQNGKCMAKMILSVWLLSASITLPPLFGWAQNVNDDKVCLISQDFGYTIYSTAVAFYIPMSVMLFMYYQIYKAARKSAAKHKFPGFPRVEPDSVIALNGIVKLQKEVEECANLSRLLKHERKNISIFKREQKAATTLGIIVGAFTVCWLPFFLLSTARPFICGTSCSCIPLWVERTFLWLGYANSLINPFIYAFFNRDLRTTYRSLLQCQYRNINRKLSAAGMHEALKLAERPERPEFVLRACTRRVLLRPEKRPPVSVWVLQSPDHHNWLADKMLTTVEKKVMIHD
hCYP4F12, sequence (Q9HCS2 whole entry): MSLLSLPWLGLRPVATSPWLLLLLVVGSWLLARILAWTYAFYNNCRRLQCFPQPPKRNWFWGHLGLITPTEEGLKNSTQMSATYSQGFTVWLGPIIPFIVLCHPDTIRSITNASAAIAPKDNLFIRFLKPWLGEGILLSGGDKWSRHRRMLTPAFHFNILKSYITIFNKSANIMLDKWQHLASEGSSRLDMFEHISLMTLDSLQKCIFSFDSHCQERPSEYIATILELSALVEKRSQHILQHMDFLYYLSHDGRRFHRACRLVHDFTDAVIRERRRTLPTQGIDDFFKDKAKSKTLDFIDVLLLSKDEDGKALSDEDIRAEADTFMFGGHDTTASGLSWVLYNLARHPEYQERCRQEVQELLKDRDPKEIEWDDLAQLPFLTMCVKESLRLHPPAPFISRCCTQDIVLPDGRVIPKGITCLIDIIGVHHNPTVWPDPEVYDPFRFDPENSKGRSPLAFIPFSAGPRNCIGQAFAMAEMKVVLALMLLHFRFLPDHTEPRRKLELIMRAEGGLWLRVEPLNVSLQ

For `O=C(N[C@H]1CN2CCC1CC2)c1cc2ccoc2cn1` [PHA-00543613 pharma], the “AC50 at the lowest concentration tested (LCT)” value (shortened to “AC50”) (rNNR_BungSens) was “LGIC_rNNR_BungSens”.

emamectin benzoate was tested, and the “AC50” value (hNTS) was “GPCR_hNTS”.

With `CCOc1cccc(-n2cc(C(=O)N3CCN(c4cc(C(=O)[O-])c5ccccc5c4)CC3)nc2-c2ccc(C)cc2)c1.[Na+]` [CP-457920 pharma] the “AC50” value (bGABARa5) was “LGIC_bGABARa5”.

`CCCCc1ccc2c(n1)[C@@H](c1ccc(OC)cc1C[C@H](C)C(=O)[O-])[C@H](C(=O)[O-])[C@H]2c1ccc2c(c1)OCO2.[Na+].[Na+]` [disodium (5S,6R,7R)-5-(1,3-benzodioxol-5-yl)-2-butyl-7-{2-[(2S)-2-carboxylatopropyl]-4-methoxyphenyl}-6,7-dihydro-5H-cyclopenta[b]pyridine-6-carboxylate] was tested, and the “AC50” value (hETA) was “GPCR_hETA”.

With `CS(=O)(=O)O.Cc1nccn1-c1ccc(Sc2cccc(C3(C(N)=O)CCOCC3)c2)cc1` [4-(3-{[4-(2-methyl-1H-imidazol-1-yl)phenyl]sulfanyl}phenyl)tetrahydro-2H-pyran-4-carboxamide methanesulfonate] the “AC50” value (gDAT) was “TR_gDAT”.

With `CNCc1cc(F)ccc1Oc1ccc(Cl)c(Cl)c1` [1-[2-(3,4-dichlorophenoxy)-5-fluorophenyl]-N-methylmethanamine] the “AC50” value (rSERT) was “TR_rSERT”.

`CCOC(=O)COc1cc(-n2ncc(C(F)(F)F)c(C)c2=O)c(F)cc1Cl` [flufenpyr-ethyl] was tested, and the “AC50” value (hCYP4F12) was “ADME_hCYP4F12_Activator”.

For `CCCN(CC)CC1COC2(CCC(C(C)(C)C)CC2)O1` (stereo not drawn) [spiroxamine], the “AC50” value (gSIGMA_NonSelective) was “OR_gSIGMA_NonSelective”.

For `CCOc1cccc(-n2cc(C(=O)N3CCN(c4cc(C(=O)[O-])c5ccccc5c4)CC3)nc2-c2ccc(C)cc2)c1.[Na+]` [sodium 3-(4-{[1-(3-ethoxyphenyl)-2-(4-methylphenyl)-1H-imida] [sodium 3-(4-{[1-(3-ethoxyphenyl)-2-(4-methylphenyl)-1H-imidazol-4-yl]carbonyl}piperazin-1-yl)naphthalene-1-carboxylate], the “AC50” value (mCCKAPeripheral) was “GPCR_mCCKAPeripheral”.

With `CN1CCN(c2ccccc2/C=C2\SCCN(c3ccc(Cl)c(Cl)c3)C2=O)CC1` [elzasonan (CP-448187 pharma), elzasonan] the “AC50” value (hAdrb2) was “GPCR_hAdrb2”.

In the case of mancozeb, the “AC50” value (hDUSP3) was “ENZ_hDUSP3” and the “effect on kinase and phosphatase assays, in words” value (kinases and phosphatases) was “affected multiple kinase and phosphatase assays”.

With `NC(=O)Cn1c(=O)cc(CCN2CCN(c3nccc4sccc34)CC2)c2ccc(F)cc21` [trelanserin (SL650472 pharma), trelanserin] the “AC50” value (r5HT_NonSelective) was “r5HT_NonSelective”, the “AC50” value (hDRD4.4) was “GPCR_hDRD1/4.4” and the “AC50” value (p5HT2C) was “p5HT2C”. The “AC50” value (h5HT7) was “GPCR_h5HT2A/7”, the “AC50” value (hDRD1) was “GPCR_hDRD1” and the “AC50” value (h5HT2A) was “GPCR_h5HT2A”.
